From publication PMC8448983 (European journal of medicinal chemistry, 2021)
Where two headings read alike, the source gives them in different places. Marks after values point to notes of the source that are not given here.

Experiments:
[1] = target: T1, human A1 adenosine receptor (Homo sapiens, UniProt P30542); experiment: Radioligand binding, HEK293 cells expressing human A1 receptor; conditions: for percent of inhibition, A1 AR: 10 μM compound
T1 sequence (P30542 1-326): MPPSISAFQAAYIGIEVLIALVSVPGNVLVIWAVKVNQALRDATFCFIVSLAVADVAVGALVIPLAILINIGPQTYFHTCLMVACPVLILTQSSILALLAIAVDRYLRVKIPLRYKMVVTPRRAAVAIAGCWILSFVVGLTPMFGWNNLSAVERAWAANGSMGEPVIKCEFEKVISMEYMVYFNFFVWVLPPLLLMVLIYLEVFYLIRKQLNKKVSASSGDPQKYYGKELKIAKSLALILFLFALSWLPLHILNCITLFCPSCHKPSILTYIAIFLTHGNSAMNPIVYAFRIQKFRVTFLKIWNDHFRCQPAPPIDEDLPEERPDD

[2] = target: T2, human A3 adenosine receptor (Homo sapiens, UniProt P0DMS8); experiment: Radioligand binding, HEK293 cells expressing human A3 receptor; conditions: for activity class (active / inactive) in SAR and selectivity analysis / receptor selectivity class: compounds 33–52, NIH binding data; for Ki: read-out: Ki, A3 AR, [125I]-N6-(4-amino-3-iodobenzyl)adenosine-5′-N-methyluronamide; for Ki / percent of inhibition, A3 AR: NIH laboratory, HEK293; for percent of inhibition, A3 AR: 10 μM compound, agonist radioligand
T2 sequence (P0DMS8 1-318): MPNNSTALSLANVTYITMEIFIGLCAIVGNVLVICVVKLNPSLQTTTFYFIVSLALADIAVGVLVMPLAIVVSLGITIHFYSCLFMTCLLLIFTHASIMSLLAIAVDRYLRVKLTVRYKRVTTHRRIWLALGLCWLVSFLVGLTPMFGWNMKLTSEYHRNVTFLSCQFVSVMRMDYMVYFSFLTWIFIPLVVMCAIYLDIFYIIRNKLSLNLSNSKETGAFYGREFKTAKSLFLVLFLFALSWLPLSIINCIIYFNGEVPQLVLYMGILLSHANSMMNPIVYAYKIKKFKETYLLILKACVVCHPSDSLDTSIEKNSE

[3] = target: T3, human A2A adenosine receptor (Homo sapiens, UniProt P29274); experiment: Radioligand binding, HEK293 cells expressing human A2A receptor; conditions: for percent of inhibition, A2A AR: 10 μM compound, NIH laboratory, agonist radioligand
[4] = system: human blood platelets; experiment: ADP-induced platelet aggregation in platelet-rich plasma; type: cell-based; conditions: 10 μM ADP, mean ± SD, n = 6–9
[5] = target: T3, human A2A adenosine receptor; conditions: 10 μM compound; USEF; HeLa-A2A membranes; 3 nM [3H]-ZM241385
[6] = target: T4, human A2B adenosine receptor (Homo sapiens, UniProt P29275); conditions: USEF, HEK-A2B membranes, 25 nM [3H]-DPCPX; for percent of inhibition, A2B AR: 10 μM compound
T4 sequence (P29275 1-332): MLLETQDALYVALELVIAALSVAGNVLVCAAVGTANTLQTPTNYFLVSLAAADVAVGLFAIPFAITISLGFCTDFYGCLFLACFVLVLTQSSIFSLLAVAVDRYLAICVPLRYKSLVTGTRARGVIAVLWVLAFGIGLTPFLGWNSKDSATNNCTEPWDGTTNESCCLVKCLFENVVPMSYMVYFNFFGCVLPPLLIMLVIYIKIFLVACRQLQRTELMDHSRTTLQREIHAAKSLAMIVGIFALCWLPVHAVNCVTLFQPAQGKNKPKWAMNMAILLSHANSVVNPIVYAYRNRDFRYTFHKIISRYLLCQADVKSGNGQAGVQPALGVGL

[7] = target: T1, human A1 adenosine receptor; conditions: 10 μM compound; USEF; CHO-A1 membranes; 1 nM [3H]-DPCPX
[8] = target: T2, human A3 adenosine receptor; conditions: for percent of inhibition, A3 AR: 10 μM compound; for percent of inhibition, A3 AR / Ki: USEF, HeLa-A3 membranes, 10 nM [3H]-NECA; for activity class (active / inactive) in selectivity analysis / receptor selectivity class: N6 carborane derivatives, USEF binding data; for Ki: read-out: Ki, A3 AR
[9] = target: T5, human A3 receptor (Homo sapiens, UniProt P0DMS8); experiment: Functional cAMP assay in CHO-A3 cells; type: cell-based; conditions: for KB (antagonist mode; functional character at A3): inhibition of NECA (0.1 μM) effect on cAMP; for % Emax: maximal agonist effect; for EC50: read-out: EC50 (cAMP), agonist mode
T5 sequence (P0DMS8 1-318): T2 sequence (P0DMS8 1-318)

[10] = NIH laboratory, HEK293, [3H]-N6-R-phenylisopropyladenosine

T3 sequence (P29274 whole entry): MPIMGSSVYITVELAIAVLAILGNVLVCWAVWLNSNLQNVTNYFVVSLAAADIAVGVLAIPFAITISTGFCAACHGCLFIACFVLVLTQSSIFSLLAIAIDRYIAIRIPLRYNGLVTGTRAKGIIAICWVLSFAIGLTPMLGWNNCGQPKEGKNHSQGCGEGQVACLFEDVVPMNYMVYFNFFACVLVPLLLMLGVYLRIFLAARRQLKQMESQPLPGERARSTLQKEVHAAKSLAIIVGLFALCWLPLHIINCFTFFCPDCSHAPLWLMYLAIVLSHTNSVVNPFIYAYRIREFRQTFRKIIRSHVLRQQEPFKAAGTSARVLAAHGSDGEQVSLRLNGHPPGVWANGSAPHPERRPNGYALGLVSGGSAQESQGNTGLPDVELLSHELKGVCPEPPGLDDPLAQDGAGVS

Row | Molecule | activity class (active / inactive) in SAR and selectivity analysis [2] | receptor selectivity class [2] | percent of inhibition, A1 AR [1, 10] [%] | percent of inhibition, A2A AR [3] [%] | area under the aggregation curve, ADP-induced platelet aggregation ([4]; 10 μM compound) [arbitrary units] | area under the aggregation curve, ADP-induced platelet aggregation ([4]; 50 μM compound) [arbitrary units] | other results
1 | 2-Ethynyl-(1,12-dicarba-closo-dodecaboran-1-yl)adenosine [Compound 41] | active | not selective |  |  |  |  | Ki ([1]; read-out: Ki, A1 AR, NIH laboratory, HEK293, [3H]-N6-R-phenylisopropyladenosine): 2870 ± 1690 nM; Ki [2]: 206 ± 31 nM; Ki ([3]; read-out: Ki, A2A AR, NIH laboratory, [3H]-2-[p-(2-carboxyethyl)phenyl-ethylamino]-5′-N-ethylcarboxamidoadenosine): 3070 ± 530 nM
2 | 2-ethyl-(1,12-dicarba-closo-dodecaboran-2-yl)arabinoadenosine [Compound 49] |  |  | 27 ± 9 | 12 ± 14 |  |  | percent of inhibition, A3 AR [2]: 25 ± 8%
3 | 2-ethynyl-(1,12-dicarba-closo-dodecaboran-2-yl) arabinoadenosine [Compound 47] | active | A3 selective | 15 ± 1 | 17 ± 2.7 |  |  | Ki [2]: 4390 ± 2020 nM
4 | 2′-O-(1,12-dicarba-closo-dodecaboran-1-yl)propyleneoxymethyl]-adenosine [Compound 37] |  |  | 6 ± 10 | 7 ± 2 | 661.1 ± 61.3 | 616.0 ± 24.7 | percent of inhibition, A3 AR [2]: 19 ± 14%
5 | 8-[2-(1,12-dicarba-closo-dodecaboran-1-yl)ethyl]-adenosine [Compound 35] | inactive |  | 16 ± 7 | 18 ± 4 | 665.7 ± 86.8 | 682.3 ± 17.4 | percent of inhibition, A3 AR [2]: 9 ± 13%
6 | 8-[2-(1,12-dicarba-closo-dodecaboran-1-yl)ethynyl] adenosine [Compound 33] | inactive |  | 29 ± 7 | 17.1 ± 8 |  |  | percent of inhibition, A3 AR [2]: 48 ± 12%
7 | 8-[2-(1,12-dicarba-closo-dodecaboran-1-yl)ethynyl]-2′-deoxyadenosine [Compound 43] | inactive |  | 6 ± 6 | 10 ± 5 |  |  | percent of inhibition, A3 AR [2]: 1 ± 8%
8 | Nc1ncnc2c1nc(C#Cc1ccccc1)n2[C@@H]1O[C@H](CO)[C@@H](O)[C@H]1O [Compound 34, 8-(2-phenylethynyl)adenosine] | active | A3 selective |  |  |  |  | inhibition at 10 µM ([1]; read-out: percent of inhibition, A1 AR): 11 ± 3%
9 | Nc1ncnc2c1nc(CCc1ccccc1)n2[C@@H]1O[C@H](CO)[C@@H](O)[C@H]1O [Compound 36, 8-(2-phenylethyl)adenosine] | inactive |  |  |  |  |  | 
10 | Nc1nc(C#Cc2ccccc2)nc2c1ncn2[C@@H]1O[C@H](CO)[C@@H](O)[C@H]1O [Compound 42, 2-Phenylethynyladenosine] | active | not selective |  |  |  |  | 
11 | Nc1ncnc2c1nc(C#Cc1ccccc1)n2[C@H]1C[C@H](O)[C@@H](CO)O1 [Compound 44] | active | not selective |  |  |  |  | 
12 | Nc1nc(CCc2ccccc2)nc2c1ncn2[C@@H]1O[C@H](CO)[C@@H](O)[C@H]1O [Compound 46] | inactive | not selective |  |  |  |  | 
13 | Nc1nc(C#Cc2ccccc2)nc2c1ncn2[C@@H]1O[C@H](CO)[C@@H](O)[C@@H]1O [Compound 48] | active | A3 selective |  |  |  |  | 
14 | Nc1nc(CCc2ccccc2)nc2c1ncn2[C@@H]1O[C@H](CO)[C@@H](O)[C@@H]1O [Compound 50] | inactive |  |  |  |  |  | 
15 | Nc1ncnc2c1nc(CCc1ccccc1)n2[C@H]1C[C@H](O)[C@@H](CO)O1 [Compound 52] | inactive |  |  |  |  |  | 
16 | N^6-(3-phenylpropyl)-2-chloro-2′-deoxyadenosine [Compound 28] |  |  |  |  |  |  | percent of inhibition, A2A AR [5]: 14 ± 2 %^a; percent of inhibition, A2B AR [6]: 1 ± 1 %^a
17 | N^6-[3-(1,12-Dicarba-closo-dodecaboran-1-yl)propyl]adenosine [Compound 39] |  |  | 32 ± 1 | 0 ± 1 | 678.4 ± 55.7 | 658.0 ± 46.8 | percent of inhibition, A3 AR [2]: 0 ± 12%
18 | N^6-[3-(1,12-dicarba-closo-dodecaboran-1-yl)propyl]-2-chloro-2′-deoxyadenosine [Compound 27] |  |  |  |  |  |  | percent of inhibition, A1 AR [7]: 25 ± 1 %^a; percent of inhibition, A2A AR [5]: 1 ± 1 %^a; Ki ([6]; read-out: Ki, A2B AR): 4670 nM; percent of inhibition, A3 AR [8]: 10 ± 3 %^a
19 | N^6-[3-(1,12-dicarba-closo-dodecaboran-1-yl)propyl]-2-chloroadenosine [Compound 23] |  |  |  |  | 715.3 ± 85.8 | 657.0 ± 67.2 | percent of inhibition, A2A AR [5]: 1 ± 1 %^a
20 | N^6-[(1,12-dicarba-closo-dodecaboran-1-yl)but-4-yl]-5′-ethylcarbamoyl-adenosine [Compound 15] |  |  |  |  | 698.7 ± 74.4 | 657.1 ± 70.7 | KB (antagonist mode; functional character at A3) [9]: no antagonist; % Emax [9]: 99%; EC50 [9]: 1010 nM; percent of inhibition, A1 AR [7]: 40 ± 2 %^a; percent of inhibition, A2A AR [5]: 9 ± 1 %^a; percent of inhibition, A2B AR [6]: 7 ± 2 %^a; activity class (active / inactive) in selectivity analysis [8]: active; receptor selectivity class [8]: A3 AR selective; Ki [8]: 437 nM
21 | N^6-[(1,12-dicarba-closo-dodecaboran-1-yl)but-4-yl]adenosine [Compound 7] |  |  |  |  | 686.5 ± 66.1 | 642.8 ± 45.4 | KB (antagonist mode; functional character at A3) [9]: no antagonist; % Emax [9]: 103%; EC50 [9]: 271 nM; percent of inhibition, A1 AR [7]: 29 ± 1 %^a; percent of inhibition, A2A AR [5]: 2 ± 1 %^a; percent of inhibition, A2B AR [6]: 1 ± 1 %^a; activity class (active / inactive) in selectivity analysis [8]: active; receptor selectivity class [8]: A3 AR selective; Ki [8]: 444 nM
22 | N^6-[(1,12-dicarba-closo-dodecaboran-1-yl)prop-3-yl]-5′-ethylcarbamoyl adenosine [Compound 17] |  |  |  |  | 646.2 ± 58.6 | 639.5 ± 64.7 | percent of inhibition, A1 AR [7]: 18 ± 3 %^a; percent of inhibition, A2A AR [5]: 1 ± 1 %^a; percent of inhibition, A2B AR [6]: 4 ± 4 %^a; percent of inhibition, A3 AR [8]: 34 ± 4 %^a; activity class (active / inactive) in selectivity analysis [8]: inactive
